According to US9913843B2, “Protein kinase C inhibitors and uses thereof” (Rigel Pharmaceuticals, Inc., priority 2012, dated 2018):
pIC50: −log10 of the molar value. Read-outs that look alike come from different tables or passages of the source.

System: PKC mediated IL-2 production in human primary T cells
Test: IL-2 ELISA, human primary T cell, anti CD3+CD28+ (whole cell functional assay for PKC mediated IL-2 production)
Format: cell-based
Method in brief: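 Primary human T cells (PBMC-derived, expanded on plate-bound anti-CD3/CD28 with IL-2, then IL-2-washed) were pre-incubated 1 h at 37 °C with compound, then stimulated on 1 μg/ml anti-CD3 plus 5 μg/ml anti-CD28. After 24 h at 37 °C, secreted IL-2 was measured by ELISA; counter assay used 0.5 ng/ml PMA plus 0.1 μM ionomycin (final).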

[1] = 24 h, human primary T cells stimulated with anti-CD3 + anti-CD28, IL-2 by ELISA, read-out: IC50 for blocking IL-2 production
[2] = human primary T cells stimulated with anti-CD3 + anti-CD28, 24 h, IL-2 by ELISA, 8 pt, read-out: IL2 ELISA, Human primary T cell, anti-CD3 + CD28, 8 pt (IC50)

Row | Compound | pIC50 [1] | pIC50 [2]
1 | COCCOc1cc(F)c(Nc2ncc(C#N)c(NC[C@@H]3CCCN4CCCC[C@H]34)n2)cc1-n1nnn(C)c1=O [Compound 129, 2-((2-fluoro-4-(2-methoxyethoxy)-5-(4-methyl-5-oxo-4,5-dihydro-1H-tetrazol-1-yl)phenyl)amino)-4-((((1S,9aR)-octahydro-2H-quinolizin-1-yl)methyl)amino)pyrimidine-5-carbonitrile] | > 4.52 | 5.87
2 | Cn1nnn(-c2cc(Nc3ncc(C#N)c(NC[C@@H]4CCCN5CCCC[C@H]45)n3)c(F)cc2OCC2(C)COC2)c1=O [Compound 130, 2-((2-fluoro-5-(4-methyl-5-oxo-4,5-dihydro-1H-tetrazol-1-yl)-4-((3-methyloxetan-3-yl)methoxy)phenyl)amino)-4-((((1S,9aR)-octahydro-2H-quinolizin-1-yl)methyl)amino)pyrimidine-5-carbonitrile] | > 4.52 | 6.35
3 | Cn1nnn(-c2cc(Nc3ncc(C#N)c(NC[C@@H]4CCCN5CCCC[C@H]45)n3)c(F)cc2OCC2COCCO2)c1=O (stereo partly drawn) [Compound 131, 2-((4-((1,4-dioxan-2-yl)methoxy)-2-fluoro-5-(4-methyl-5-oxo-4,5-dihydro-1H-tetrazol-1-yl)phenyl)amino)-4-((((1S,9aR)-octahydro-2H-quinolizin-1-yl)methyl)amino)pyrimidine-5-carbonitrile] | > 4.52 | 5.88
4 | Cn1nnn(-c2cc(Nc3ncc(C#N)c(NC[C@@H]4CCCN5CCCC[C@H]45)n3)c(F)cc2OCC(O)CO)c1=O (stereo partly drawn) [Compound 132, 2-((4-(2,3-dihydroxypropoxy)-2-fluoro-5-(4-methyl-5-oxo-4,5-dihydro-1H-tetrazol-1-yl)phenyl)amino)-4-((((1S,9aR)-octahydro-2H-quinolizin-1-yl)methyl)amino)pyrimidine-5-carbonitrile] | > 4.52 | 5.91
5 | COCCOCCOc1cc(F)c(Nc2ncc(C#N)c(NC[C@@H]3CCCN4CCCC[C@H]34)n2)cc1-n1nnn(C)c1=O [Compound 133, 2-((2-fluoro-4-(2-(2-methoxyethoxyl)ethoxy)-5-(4-methyl-5-oxo-4,5-dihydro-1H-tetrazol-1-yl)phenyl)amino)-4-((((1S,9aR)-octahydro-2H-quinolizin-1-yl)methyl)amino)pyrimidine-5-carbonitrile] | > 4.52 | 6.00
6 | Cn1nnn(-c2cc(Nc3ncc(C#N)c(NC[C@@H]4CCCN5CCCC[C@H]45)n3)c(F)cc2OCC(O)(C(F)(F)F)C(F)(F)F)c1=O [Compound 134, 2-((2-fluoro-5-(4-methyl-5-oxo-4,5-dihydro-1H-tetrazol-1-yl)-4-(3,3,3-trifluoro-2-hydroxy-2-(trifluoromethyl)propoxy)phenyl)amino)-4-((((1S,9aR)-octahydro-2H-quinolizin-1-yl)methyl)amino)pyrimidine-5-carbonitrile] | > 4.52 | 6.04
7 | Cn1nnn(-c2cc(Nc3ncc(C#N)c(NC[C@@H]4CCCN5CCCC[C@H]45)n3)c(F)cc2OCCO)c1=O [Compound 135, 2-((2-fluoro-4-(2-hydroxyethoxy)-5-(4-methyl-5-oxo-4,5-dihydro-1H-tetrazol-1-yl)phenyl)amino)-4-((((1S,9aR)-octahydro-2H-quinolizin-1-yl)methyl)amino)pyrimidine-5-carbonitrile] | > 4.52 | 
8 | CC(O)COc1cc(F)c(Nc2ncc(C#N)c(NC[C@@H]3CCCN4CCCC[C@H]34)n2)cc1-n1nnn(C)c1=O (stereo partly drawn) [Compound 136, 2-((2-fluoro-4-(2-hydroxypropoxy)-5-(4-methyl-5-oxo-4,5-dihydro-1H-tetrazol-1-yl)phenyl)amino)-4-((((1S,9aR)-octahydro-2H-quinolizin-1-yl)methyl)amino)pyrimidine-5-carbonitrile] | > 4.52 | 6.75
9 | [2H]C([2H])(O)C([2H])([2H])Oc1cc(F)c(Nc2ncc(C#N)c(NC[C@@H]3CCCN4CCCC[C@H]34)n2)cc1-n1nnn(C)c1=O [Compound 137, 2-((2-fluoro-4-(2-hydroxyethoxy-1,1,2,2-d4)-5-(4-methyl-5-oxo-4,5-dihydro-1H-tetrazol-1-yl)phenyl)amino)-4-((((1S,9aR)-octahydro-2H-quinolizin-1-yl)methyl)amino)pyrimidine-5-carbonitrile] | > 4.52 | 
10 | OCCOc1ccc(Nc2ncc(F)c(NC[C@@H]3CCCN4CCCC[C@H]34)n2)cc1-n1cnnn1 [Compound 138, 2-(4-((5-fluoro-4-((((1S,9aR)-octahydro-2H-quinolizin-1-yl)methyl)amino)pyrimidin-2-yl)amino)-2-(1H-tetrazol-1-yl)phenoxy)ethan-1-ol] | > 4.52 | 7.31
11 | OCCOc1ccc(Nc2ncc(Cl)c(NC[C@@H]3CCCN4CCCC[C@H]34)n2)cc1-n1cnnn1 [Compound 139, 2-(4-((5-chloro-4-((((1S,9aR)-octahydro-2H-quinolizin-1-yl)methyl)amino)pyrimidin-2-yl)amino)-2-(1H-tetrazol-1-yl)phenoxy)ethan-1-ol] | > 4.52 | 7.76
12 | N#Cc1cnc(Nc2ccc(OCCO)c(-n3cnnn3)c2)nc1NC[C@@H]1CCCN2CCCC[C@H]12 [Compound 140, 2-((4-(2-hydroxyethoxy)-3-(1H-tetrazol-1-yl)phenyl)amino)-4-((((1S,9aR)-octahydro-2H-quinolizin-1-yl)methyl)amino)pyrimidine-5-carbonitrile] | > 4.52 | 7.56
13 | OCCOc1ccc(Nc2nccc(NC[C@@H]3CCCN4CCCC[C@H]34)n2)cc1-n1cnnn1 [Compound 141, 2-(4-((4-((((1S,9aR)-octahydro-2H-quinolizin-1-yl)methyl)amino)pyrimidin-2-yl)amino)-2-(1H-tetrazol-1-yl)phenoxy)ethan-1-ol] | > 4.52 | 5.45
14 | C[C@H](O)COc1cc(F)c(Nc2ncc(C#N)c(NC[C@@H]3CCCN4CCCC[C@H]34)n2)cc1-n1nnn(C)c1=O [Compound 142, 2-((2-fluoro-4-((S)-2-hydroxypropoxy)-5-(4-methyl-5-oxo-4,5-dihydro-1H-tetrazol-1-yl)phenyl)amino)-4-((((1 S,9aR)-octahydro-2H-quinolizin-1-yl)methyl)amino)pyrimidine-5-carbonitrile] | > 4.52 | 7.18
15 | C[C@@H](O)COc1cc(F)c(Nc2ncc(C#N)c(NC[C@@H]3CCCN4CCCC[C@H]34)n2)cc1-n1nnn(C)c1=O [Compound 143, 2-((2-fluoro-4-((R)-2-hydroxypropoxy)-5-(4-methyl-5-oxo-4,5-dihydro-1H-tetrazol-1-yl)phenyl)amino)-4-((((1S,9aR)-octahydro-2H-quinolizin-1-yl)methyl)amino)pyrimidine-5-carbonitrile] | > 4.52 | 6.83
16 | CC(O)COc1ccc(Nc2ncc(C#N)c(NC[C@@H]3CCCN4CCCC[C@H]34)n2)cc1C#N (stereo partly drawn) [Compound 144, 2-((3-cyano-4-(2-hydroxypropoxy)phenyl)amino)-4-((((1S,9aR)-octahydro-2H-quinolizin-1-yl)methyl)amino)pyrimidine-5-carbonitrile] | > 4.52 | 4.91
17 | CC(O)COc1ccc(Nc2ncc(F)c(NC[C@@H]3CCCN4CCCC[C@H]34)n2)cc1C#N (stereo partly drawn) [Compound 145, 5-((5-fluoro-4-((((1S,9aR)-octahydro-2H-quinolizin-1-yl)methyl)amino)pyrimidin-2-yl)amino)-2-(2-hydroxypropoxy)benzonitrile] | > 4.52 | 5.33
18 | Cn1nnn(-c2cc(Nc3ncc(Cl)c(NC[C@@H]4CCCN5CCCC[C@H]45)n3)c(F)cc2O)c1=O [Compound 146, 1-(5-((5-chloro-4-((((1S,9aR)-octahydro-2H-quinolizin-1-yl)methyl)amino)pyrimidin-2-yl)amino)-4-fluoro-2-hydroxyphenyl)-4-methyl-1,4-dihydro-5H-tetrazol-5-one] | > 4.52 | 5.70
19 | Cn1nnn(-c2cc(Nc3ncc(F)c(NC[C@@H]4CCCN5CCCC[C@H]45)n3)c(F)cc2O)c1=O [Compound 147, 1-(5-((5-fluoro-4-((((1S,9aR)-octahydro-2H-quinolizin-1-yl)methyl)amino)pyrimidin-2-yl)amino)-4-fluoro-2-hydroxyphenyl)-4-methyl-1,4-dihydro-5H-tetrazol-5-one] | > 4.52 | 5.30
20 | Cn1nnn(-c2cc(Nc3ncc(F)c(NC[C@@H]4CCCN5CCCC[C@H]45)n3)c(F)cc2OC(C)(C)CO)c1=O [Compound 148, 1-(4-fluoro-5-((5-fluoro-4-((((1S,9aR)-octahydro-2H-quinolizin-1-yl)methyl)amino)pyrimidin-2-yl)amino)-2-((1-hydroxy-2-methylpropan-2-yl)oxy)phenyl)-4-methyl-1,4-dihydro-5H-tetrazol-5-one] | > 4.52 | 5.80
21 | C[C@H](O)COc1cc(F)c(Nc2ncc(F)c(NC[C@@H]3CCCN4CCCC[C@H]34)n2)cc1-n1nnn(C)c1=O [Compound 149, 1-(4-fluoro-5-((5-fluoro-4-((((1S,9aR)-octahydro-2H-quinolizin-1-yl)methyl)amino)pyrimidin-2-yl)amino)-2-((S)-2-hydroxypropoxy)phenyl)-4-methyl-1,4-dihydro-5H-tetrazol-5-one] | > 4.52 | 6.58
22 | CCOC(=O)C(C)(C)Oc1cc(F)c(Nc2ncc(C#N)c(NC[C@@H]3CCCN4CCCC[C@H]34)n2)cc1-n1nnn(C)c1=O [Compound 150, ethyl 2-(4-((5-cyano-4-((((1S,9aR)-octahydro-2H-quinolizin-1-yl)methyl)amino)pyrimidin-2-yl)amino)-5-fluoro-2-(4-methyl-5-oxo-4,5-dihydro-1H-tetrazol-1-yl)phenoxy)-2-methylpropanoate] | > 4.52 | 5.94
